Our source for the IC50 values is patent publication US7205305B2, “Inhibitors of p38” (Vertex Pharmaceuticals Incorporated, priority 1996, dated 2007).

Structures are written as SMILES.

The test system of experiment [1] is IL-1 production in LPS-stimulated PBMCs. Put plainly: Inhibition of IL-1 production in LPS-stimulated PBMCs ("cell"). Type of experiment: cell-based, human. The following applies: Homo sapiens, PBMC. The method in brief:
(§1)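 Cytokine levels (IL-1β, TNF-α) in culture supernatants quantified by ELISA, with IC50 taken from dose-response curves. Fresh human PBMCs in RPMI1640 with 10% FBS received serially diluted compound plus LPS (4 ng/ml final) and were cultured 12–15 h at 37 °C, 5% CO2.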

The next experiment addresses activated p38 (Homo sapiens, UniProt Q16539). The experiment in a line: Inhibition of phosphorylation of EGF receptor peptide ("kinase"). Type of experiment: biochemical. The following applies: inhibition of phosphorylation of EGF receptor peptide by activated p38. In short, it runs like this:
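Activated p38 was preincubated with inhibitor for 15 min at room temperature in 100 mM HEPES pH 7.6, 10 mM MgCl2, 25 mM β-glycerophosphate, 10% glycerol, 5% DMSO final. Reaction used 200 μM EGF receptor peptide and 100 μM ATP for 30 min at 30° C. TFA-quenched phosphopeptide was quantified by reverse-phase HPLC.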

Experiment [2] relates to TNF production in LPS-stimulated PBMCs. Put plainly: Inhibition of TNF production in LPS-stimulated PBMCs ("cell"). Type of experiment: cell-based, human. The following applies: Homo sapiens, PBMC. In short, it runs like this: as §1
Experiment [3] concerns IL-1 production in whole blood. The experiment in a line: Inhibition of IL-1 production in LPS-stimulated whole blood ("WB"). Type of experiment: cell-based, human. The following applies: Homo sapiens. As for the experimental part: (§2) Inhibitors were serially diluted in DMSO from a 20 mM stock. At least 6 serial dilutions were prepared. Then 4× inhibitor stocks were prepared by adding 4 μl of an inhibitor dilution to 1 ml of RPMI1640 medium/10% fetal bovine serum. The 4× inhibitor stocks contained inhibitor at concentrations of 80 μM, 32 μM, 12.8 μM, 5.12 μM, 2.048 μM, 0.819 μM, 0.328 μM, 0.131 μM, 0.052 μM, 0.021 μM etc. The 4× inhibitor stocks were pre-warmed at 37° C. until use.
(§3) Alternatively, whole blood containing an anti-coagulant was used directly in the assay.
(§4) We placed 100 μl of cell suspension or whole blood in each well of a 96-well cell culture plate. Then we added 50 μl of the 4× inhibitor stock to the cells. Finally, we added 50 μl of a lipopolysaccharide (LPS) working stock solution (16 ng/ml in cell culture medium) to give a final concentration of 4 ng/ml LPS in the assay. The total assay volume of the vehicle control was also adjusted to 200 μl by adding 50 μl cell culture medium. The PBMC cells or whole blood were then incubated overnight (for 12–15 hours) at 37° C./5% CO2 in a humidified atmosphere.
(§5) The next day the cells were mixed on a shaker for 3–5 minutes before centrifugation at 500×g for 5 minutes. Cell culture supernatants were harvested and analyzed by ELISA for levels of IL-1b (R & D Systems, Quantikine kits, #DBL50), TNF-α (BioSource, #KHC3012), IL-6 (Endogen, #EH2-IL6) and IL-8 (Endogen, #EH2-IL8) according to the instructions of the manufacturer. The ELISA data were used to generate dose-response curves from which IC50 values were derived.

Experiment [4] deals with IL-6 production in whole blood. The experiment in a line: Inhibition of IL-6 production in LPS-stimulated whole blood ("WB"). Type of experiment: cell-based, human. The following applies: Homo sapiens. As for the experimental part: as §2, §3, §4, §5
In experiment [5] the test system is TNF production in whole blood. The experiment in a line: Inhibition of TNF production in LPS-stimulated whole blood ("WB"). Type of experiment: cell-based, human. The following applies: Homo sapiens. As for the experimental part: as §2, §3, §4, §5

activated p38, sequence (Q16539 whole entry): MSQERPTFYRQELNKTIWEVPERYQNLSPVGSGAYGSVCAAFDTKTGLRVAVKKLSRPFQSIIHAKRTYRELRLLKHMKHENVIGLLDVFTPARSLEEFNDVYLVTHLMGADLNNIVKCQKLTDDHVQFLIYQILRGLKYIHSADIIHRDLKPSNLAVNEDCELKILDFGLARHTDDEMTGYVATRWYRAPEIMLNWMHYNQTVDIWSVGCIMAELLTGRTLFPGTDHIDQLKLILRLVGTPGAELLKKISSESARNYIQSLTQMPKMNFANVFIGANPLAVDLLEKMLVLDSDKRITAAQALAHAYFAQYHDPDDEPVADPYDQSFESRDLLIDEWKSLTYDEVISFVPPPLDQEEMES

The IC50 is the midpoint of a concentration-inhibition curve. On to `O=C1NCN2N=C(Sc3ccccc3CO)C=CC2=C1c1c(Cl)cccc1Cl` [Compound 108], for which the IC50 in experiment [1] is 100 to 500 nM; at activated p38 it was at most 100 nM; in experiment [2], at most 100 nM; in experiment [3], 250 to 500 nM; in experiment [4], at most 250 nM; in experiment [5], at most 250 nM.
For `O=C1NCN2N=C(Sc3ccccc3Br)C=CC2=C1c1c(Cl)cccc1Cl` [Compound 109], the IC50 in experiment [1] was at most 100 nM; against activated p38, at most 100 nM; in experiment [2], at most 100 nM; in experiment [3], at least 500 nM; in experiment [4], 250 to 500 nM; in experiment [5] it was at least 500 nM.
Take `CC(C)(C)OC(=O)Nc1ccccc1SC1=NN2CNC(=O)C(c3c(Cl)cccc3Cl)=C2C=C1` [Compound 112]: the half-inhibitory concentration (IC50) in experiment [1] is 100 to 500 nM; at activated p38, 100 to 1000 nM; in experiment [2], at least 500 nM; in experiment [3], at least 500 nM; in experiment [4], at least 500 nM; in experiment [5], at least 500 nM.
`Cc1ccc(SC2=NN3CNC(=O)C(c4c(Cl)cccc4Cl)=C3C=C2)c(C)c1` [Compound 113]: the IC50 was at most 100 nM in experiment [1]; at most 100 nM on activated p38; 100 to 500 nM in experiment [2]; at least 500 nM in experiment [3]; at least 500 nM in experiment [4]; at least 500 nM in experiment [5].
Turning to `O=C1NCN2N=C(Sc3ccccc3O)C=CC2=C1c1c(Cl)cccc1Cl` [Compound 114], the IC50 is at most 100 nM in experiment [1]; at most 100 nM at activated p38; at most 100 nM in experiment [2]; 250 to 500 nM in experiment [3]; at most 250 nM in experiment [4]; 250 to 500 nM in experiment [5].
As to `Nc1ccccc1SC1=NN2CNC(=O)C(c3c(Cl)cccc3Cl)=C2C=C1` [Compound 115], the IC50 was at most 100 nM in experiment [1]; at most 100 nM on activated p38; at most 100 nM in experiment [2]; at least 500 nM in experiment [3]; at least 500 nM in experiment [4]; at least 500 nM in experiment [5].
Consider `N#Cc1ccccc1SC1=NN2CNC(=O)C(c3c(Cl)cccc3Cl)=C2C=C1` [Compound 116], for which the IC50 in experiment [1] was at most 100 nM; against activated p38, at most 100 nM; in experiment [2] it was 100 to 500 nM; in experiment [3], at least 500 nM; in experiment [4] it was at least 500 nM; in experiment [5] it was at least 500 nM.
Consider `Nc1cc(F)ccc1SC1=NN2CNC(=O)C(c3c(Cl)cccc3Cl)=C2C=C1` [Compound 117], for which the IC50 was at most 100 nM in experiment [1]; at most 100 nM on activated p38; at most 100 nM in experiment [2]; 250 to 500 nM in experiment [3]; at most 250 nM in experiment [4]; 250 to 500 nM in experiment [5].
Turning to `NCc1ccccc1SC1=NN2CNC(=O)C(c3c(Cl)cccc3Cl)=C2C=C1` [Compound 118], the IC50 is 100 to 500 nM in experiment [1]; 100 to 1000 nM on activated p38; 100 to 500 nM in experiment [2]; at least 500 nM in experiment [3]; at least 500 nM in experiment [4]; at least 500 nM in experiment [5].
With `COc1ccc(C2=C3C=CC(Sc4ccc(F)cc4)=NN3CNC2=O)c(Cl)c1OC` [Compound 121], the IC50 in experiment [1] was at most 100 nM; against activated p38 it was at most 100 nM; in experiment [2] it was 100 to 500 nM; in experiment [3] it was at least 500 nM; in experiment [4], at least 500 nM; in experiment [5] it was at least 500 nM.
Consider `Nc1ccc(F)cc1SC1=NN2CNC(=O)C(c3c(Cl)cccc3Cl)=C2C=C1` [Compound 122], for which the IC50 was 100 to 500 nM in experiment [1]; 100 to 1000 nM at activated p38; at least 500 nM in experiment [2]; at least 500 nM in experiment [3]; at least 500 nM in experiment [4]; at least 500 nM in experiment [5].
Turning to `O=C1NCN2N=C(Sc3ccccc3CNc3ncc[nH]3)C=CC2=C1c1c(Cl)cccc1Cl` [Compound 123], the IC50 in experiment [1] was 100 to 500 nM; on activated p38, 100 to 1000 nM; in experiment [2], 100 to 500 nM; in experiment [3] it was at least 500 nM; in experiment [4], at least 500 nM; in experiment [5] it was at least 500 nM.
